Marks after values point to notes of the source that are not given here.
What was measured:
Format in all cases: cell-based
CCR1 = biological target: T1, CCR1 (Homo sapiens, UniProt P32246); assay: Antibody Dependent Cellular Cytotoxicity (ADCC) reporter assay, CCR1 target cells; conditions: CHOK1 cells overexpressing CCR1; for EC50: Jurkat FcgRIIIa NFAT-luciferase reporter cells, EC50 class, read-out: ADCC potency; for ADCC efficacy: maximum signal:background (S/B)
T1 construct: expressed in transfected cells; host or cells: CHOK1
T1 sequence (P32246 1-355): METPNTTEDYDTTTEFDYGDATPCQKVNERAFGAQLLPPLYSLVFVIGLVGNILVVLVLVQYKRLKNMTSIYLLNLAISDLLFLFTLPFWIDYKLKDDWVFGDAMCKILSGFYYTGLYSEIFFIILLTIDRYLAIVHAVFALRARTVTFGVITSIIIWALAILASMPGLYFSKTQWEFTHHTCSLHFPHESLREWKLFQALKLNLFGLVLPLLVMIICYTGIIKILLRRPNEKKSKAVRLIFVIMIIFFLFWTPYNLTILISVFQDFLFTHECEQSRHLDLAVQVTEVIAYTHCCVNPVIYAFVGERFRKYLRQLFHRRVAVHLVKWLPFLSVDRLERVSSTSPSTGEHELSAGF
Description: (§1) The compounds described herein have been characterized in an ADCC reporter assay (see Section 1.2 ADCC reporter for protocol). […] Furthermore, the assay also confirms that this formed complex can engage and activate the Fc receptors on immune cells. Lastly, the assay provides both potency (EC50) and efficacy (signal to background ratio) for each compound in a dose dependant manner.
(§2) This assay has four components • 1) Heterobivalent Compound consisting of a targeting ligand and a hapten connected by a linker (ranging from 10 uM-1 pM) • 2) A hapten antibody with functional Fc domain (typical concentrations are 0.01 ug/mL-200 ug/mL) • 3) Target cells—CHOK1 cells engineered to overexpress either CCR1, CCR2, or CCR3, or CEMNKR cells engineered to overexpress CCR5 (typically 1000-20,000 cells per well) • 4) Reporter cells—Jurkat cells engineered to express FcgRIIIa (ADCC reporter assay) and with a reporter gene (luciferase) under the control of the NFAT promoter (typically 3000-75,000 cells per well)
(§3) Reagents are combined in final volume of 20 uL in 384-well tissue culture treated plated.
(§4) All components are incubated together for ˜12-18 hours. Add BioGlo Detection reagent (from Promega) to lyse the cells and provide substrate for the luciferase reporter protein. Signal is measured on a microplate reader capable of measuring luminescence. Signal:Background is calculated by dividing the signal of a test well by the signal obtained when no compound is included in the assay. EC50 calculations were done using Graphpad Prism Software, specifically a nonlinear regression curve fit (Y=Bottom+(Top−Bottom)/(1+10^((Log EC50−X)*HillSlope)))

CCR3 = biological target: T2, CCR3 (Homo sapiens, UniProt P51677); assay: Antibody Dependent Cellular Cytotoxicity (ADCC) reporter assay, CCR3 target cells; conditions: CHOK1 cells overexpressing CCR3
T2 construct: expressed in transfected cells; host or cells: CHOK1
T2 sequence (P51677 1-355): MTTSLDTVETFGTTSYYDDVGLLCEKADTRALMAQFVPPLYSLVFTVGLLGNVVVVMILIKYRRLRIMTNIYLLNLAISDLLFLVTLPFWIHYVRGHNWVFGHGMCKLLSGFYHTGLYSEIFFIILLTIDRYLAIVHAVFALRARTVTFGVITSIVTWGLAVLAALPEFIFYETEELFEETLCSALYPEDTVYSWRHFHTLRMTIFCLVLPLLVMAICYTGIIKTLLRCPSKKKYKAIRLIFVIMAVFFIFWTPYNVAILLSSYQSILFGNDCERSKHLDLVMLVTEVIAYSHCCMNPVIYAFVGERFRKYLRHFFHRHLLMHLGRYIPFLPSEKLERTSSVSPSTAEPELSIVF
Description: as §1, §2, §3, §4

CCR5 = biological target: T3, CCR5 (Homo sapiens, UniProt P51681); assay: Antibody Dependent Cellular Cytotoxicity (ADCC) reporter assay, CCR5 target cells; conditions: CEMNKR cells overexpressing CCR5
T3 construct: expressed in transfected cells; host or cells: CEMNKR
Description: as §1, §2, §3
All components are incubated together for ˜12-18 hours. […] Signal is measured on a microplate reader capable of measuring luminescence. Signal:Background is calculated by dividing the signal of a test well by the signal obtained when no compound is included in the assay. […]

[1] = Jurkat FcgRIIIa NFAT-luciferase reporter cells, EC50 class, read-out: ADCC potency
[2] = maximum signal:background (S/B)

T3 sequence (P51681 whole entry): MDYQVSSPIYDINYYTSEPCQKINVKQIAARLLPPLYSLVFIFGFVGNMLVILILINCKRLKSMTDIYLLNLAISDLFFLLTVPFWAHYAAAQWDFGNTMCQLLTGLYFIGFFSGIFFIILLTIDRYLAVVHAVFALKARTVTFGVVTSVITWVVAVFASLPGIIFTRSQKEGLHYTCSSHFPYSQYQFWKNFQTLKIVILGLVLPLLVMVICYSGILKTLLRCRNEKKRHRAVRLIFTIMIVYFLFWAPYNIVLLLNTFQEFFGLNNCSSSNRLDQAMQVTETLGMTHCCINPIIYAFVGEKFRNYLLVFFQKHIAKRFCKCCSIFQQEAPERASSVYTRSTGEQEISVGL

| Compound | EC50 (CCR1) | ADCC efficacy (CCR1) | EC50 (CCR3; [1]) | ADCC efficacy (CCR3; [2]) | EC50 (CCR5; [1]) | ADCC efficacy (CCR5; [2]) |
| --- | --- | --- | --- | --- | --- | --- |
| CC(C)[C@@H](NC(=O)c1cccc(C(=O)NCCOCCOCCOCCOCCOCCOCCOCCNC(=O)CCCC[C@@H]2SC[C@@H]3NC(=O)N[C@@H]32)c1)C(=O)N1CCC(c2ccc(Cl)cc2)CC1 [Compound 3, N1-((R)-1-(4-(4-chlorophenyl)piperidin-1-yl)-3-methyl-1-oxobutan-2-yl)-N3-(25-oxo-29-((3aS,4S,6aR)-2-oxohexahydro-1H-thieno[3,4-d]imidazol-4-yl)-3,6,9,12,15,18,21-heptaoxa-24-azanonacosyl)isophthalamide] | 10 to 100 nM | ++^d (between 9-11 = ++) |  |  |  |  |
| O=C(NCc1ccc(C(=O)NCCOCCOCCOCCOCCOCCOCCOCCOCCOCCNc2ccc([N+](=O)[O-])cc2[N+](=O)[O-])cc1)NC[C@H]1CN(Cc2ccc(Cl)c(Cl)c2)CCO1 [Compound 20, (S)-4-((3-((4-(3,4-dichlorobenzyl)morpholin-2-yl)methyl)ureido)methyl)-N-(29-((2,4-dinitrophenyl)amino)-3,6,9,12,15,18,21,24,27-nonaoxanonacosyl)benzamide] |  |  | < 1 nM | +++^f (Maximum S:B > 20 = +++) | < 1 nM | +++^g (Maximum Signal:Background > 70 = +++) |
| CC(C)[C@@H](NC(=O)c1cccc(C(=O)NCCOCCOCCOCCOCCOCCOCCOCCOCCC(=O)NCCOCCOCCOCCOCCOCCOCCOCCOCCOCCOCCOCCNC(=O)CCCC[C@@H]2SC[C@@H]3NC(=O)N[C@@H]32)c1)C(=O)N1CCC(c2ccc(Cl)cc2)CC1 [Compound 5, N1-((R)-1-(4-(4-chlorophenyl)piperidin-1-yl)-3-methyl-1-oxobutan-2-yl)-N3-(27,65-dioxo-69-((3aS,4S,6aR)-2-oxohexahydro-1H-thieno[3,4-d]imidazol-4-yl)-3,6,9,12,15,18,21,24,31,34, 37,40,43,46,49,52,55,58,61-nonadecaoxa-28,64-diazanonahexacontyl)isophthalamide] | 100 to 1000 nM | +^d (between 6-8 = +) |  |  |  |  |
| CC(C)[C@@H](NC(=O)c1cccc(C(=O)NCCOCCOCCOCCOCCC(=O)NCCOCCOCCOCCOCCOCCOCCOCCOCCOCCOCCOCCNC(=O)CCCC[C@@H]2SC[C@@H]3NC(=O)N[C@@H]32)c1)C(=O)N1CCC(c2ccc(Cl)cc2)CC1 [Compound 4, N1-((R)-1-(4-(4-chlorophenyl)piperidin-1-yl)-3-methyl-1-oxobutan-2-yl)-N3-(15,53-dioxo-57-((3aS,4S,6aR)-2-oxohexahydro-1H-thieno[3,4-d]imidazol-4-yl)-3,6,9,12,19,22,25,28,31,34, 37,40,43,46,49-pentadecaoxa-16,52-diazaheptapentacontyl)isophthalamide] | 100 to 1000 nM | ++^d (between 9-11 = ++) |  |  |  |  |
| CC(C)[C@@H](NC(=O)c1cccc(C(=O)NCCOCCOCCOCCOCCNC(=O)CCCC[C@@H]2SC[C@@H]3NC(=O)N[C@@H]32)c1)C(=O)N1CCC(c2ccc(Cl)cc2)CC1 [Compound 2, N1-((R)-1-(4-(4-chlorophenyl)piperidin-1-yl)-3-methyl-1-oxobutan-2-yl)-N3-(16-oxo-20-((3aS,4S,6aR)-2-oxohexahydro-1H-thieno[3,4-d]imidazol-4-yl)-3,6,9,12-tetraoxa-15-azaicosyl)isophthalamide] | 100 to 1000 nM | ++^d (between 9-11 = ++) |  |  |  |  |
| CC(C)[C@@H](NC(=O)c1cccc(C(=O)NCCOCCOCCOCCOCCOCCOCCOCCOCCOCCOCCOCCNC(=O)CCCC[C@@H]2SC[C@@H]3NC(=O)N[C@@H]32)c1)C(=O)N1CCC(c2ccc(Cl)cc2)CC1 [Compound 1, N1-((R)-1-(4-(4-chlorophenyl)piperidin-1-yl)-3-methyl-1-oxobutan-2-yl)-N3-(37-oxo-41-((3aS,4S,6aR)-2-oxohexahydro-1H-thieno[3,4-d]imidazol-4-yl)-3,6,9,12,15,18,21,24,27,30,33-undecaoxa-36-azahentetracontyl)isophthalamide] | 10 to 100 nM | +++^d (maximum signal:background > 11 = +++) |  |  |  |  |

— patent publication US20190336489A1, “NON PEPTIDE HETEROBIVALENT MOLECULES FOR TREATING INFLAMMATORY DISEASES” (GLAXOSMITHKLINE INTELLECTUAL PROPERTY DEVELOPMENT LIMITED, priority 2017, published 2019)
